# Source: patent publication US20160331783A1, “BISAMIDE COMPOUNDS AS ALLOSTERIC EFFECTORS FOR REDUCING THE OXYGEN-BINDING AFFINITY OF HEMOGLOBIN” (THE GENERAL HOSPITAL CORPORATION, priority 2014, published 2016)
# Non-standard residues stand in square brackets, D forms with d. Residues, ends and D or L forms follow the SMILES beside them. dNMeBip = CN[C@H](Cc1ccc(-c2ccccc2)cc1)C(=O)O
# Assays:
# [1] = target: T1, purified human hemoglobin (Homo sapiens, UniProt P68871); assay: Oxygen dissociation curve (ODC) of purified hemoglobin, Hemox analyzer, P50; assay type: biochemical; details: for P50 with purified hemoglobin: hemoglobin 20 μM, tested compound 120 μM, purified hemoglobin alone 17 Torr
# T1 construct: For experiments with purified hemoglobin, hemoglobin (20 μM as tetramer) was dissolved in DPBS
# T1 sequence (P68871 2-147 limits assumed): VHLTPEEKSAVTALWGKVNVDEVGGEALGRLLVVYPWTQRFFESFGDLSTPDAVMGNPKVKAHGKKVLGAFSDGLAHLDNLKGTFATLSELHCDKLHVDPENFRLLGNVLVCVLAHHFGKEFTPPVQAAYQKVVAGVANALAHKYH
# T1 sequence (P69905 2-142 partner limits assumed): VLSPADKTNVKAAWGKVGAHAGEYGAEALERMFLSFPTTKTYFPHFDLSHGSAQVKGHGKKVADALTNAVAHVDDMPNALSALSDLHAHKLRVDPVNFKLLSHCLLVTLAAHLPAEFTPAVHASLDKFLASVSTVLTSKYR
# Protocol: (§1) The ODC of hemoglobin was measured with a Hemox analyzer (TCS Scientific Corporation) at 37° C. For experiments with purified hemoglobin, hemoglobin (20 μM as tetramer) was dissolved in DPBS and antifoam (0.2 vol %, Catalog No. AFA-25, TCS Scientific Corporation) was added to prevent foaming of the sample. Compounds were prepared in DMSO stock solutions then added to hemoglobin. The final concentration of DMSO was adjusted to 5 vol %. For experiments with RBCs, blood was drawn from volunteers into EDTA tubes. The blood was centrifuged for 15 min at 3,000 rpm at 4° C. The supernatant was discarded, and RBCs were washed three times with DPBS, pH 7.4 by dilution to 50% hematocrit. The washed RBCs were then diluted with Hemox solution (mixture of N-[Tris(hydroxymethyl)methyl]-2-aminoethanesulfonic acid (TES, 30 mM), sodium chloride (135 mM), and potassium chloride (5 mM) in water (pH 7.4), TCS Scientific Corporation), and mixed with the test compound stock solutions. When known allosteric effectors NEM (400 μM), 5HMF (2 mM) or formamidine disulfide (400 μM) were mixed with RBCs (20 μM as hemoglobin tetramer) for 1 h at 37° C., P50 was reduced to 8 Torr, 9 Torr, and 9 Torr respectively, which correlated with previous reports (see Garel et al., European Journal of Biochemistry, 1982, 123, 513-519). Data was analyzed by two-tailed, unpaired Student's t test using Microsoft Excel 2007.
# A saturating effect on P50 was first determined by adding an increasing concentration of 2,3-DPG and IHP. No increase of P50 of hemoglobin was observed after an addition of a 30-fold molar excess of 2,3-DPG or IHP to hemoglobin. Hemoglobin (20 μM as tetramer) was pre-incubated with either 2,3-DPG (600 μM) or IHP (600 μM) followed by addition of Compound 1 (0, 50, 100, 150 and 200 μM) to the hemoglobin.
# [2] = tested on: human red blood cells (RBCs) / whole blood; assay: Oxygen dissociation curve (ODC) of RBCs / whole blood, Hemox analyzer, P50; assay type: cell-based; details: for P50 of whole blood: hemoglobin 20 μM, tested compound 120 μM, whole blood alone 26 Torr; for P50 of RBCs: RBCs 20 μM as hemoglobin tetramer, 1 h at 37° C.
# Protocol: as §1
# RBCs = assay: Hemolysis of RBCs / blood on incubation with compound; assay type: cell-based, human; parameters: key to Hemolysis of whole blood (P50 of whole blood column): c: does not hemolyze; details: for Hemolysis of whole blood (P50 of whole blood column): hemoglobin 20 μM, tested compound 120 μM; for Hemolysis of diluted human blood: diluted human blood 50 μM, compound/Hb tetramer 30/1 mol/mol (1.5 mM), FIG. 9
# hemoglobin [3] = target: T2, hemoglobin (Homo sapiens, UniProt P68871); assay: Small molecule microarray (SMM) binding to hemoglobin; details: hemoglobin 1 μg/mL, antibody detection
# T2 construct: incubated in a TBS-T solution containing purified hemoglobin (1 μg/mL)
# T2 sequence (P68871 2-147 limits assumed): as the sequence (P68871 2-147 limits assumed) above
# T2 sequence (P69905 2-142 partner limits assumed): as the sequence (P69905 2-142 partner limits assumed) above
# Protocol: Test compounds were affixed to SMM slides with isocyanate-functionalized surfaces as described in Casalena et al., Methods in molecular biology, 2012, 803, 249-263. Pre-incubating the SMMs with albumin blocked non-specific binding of the compounds to SMMs. Compounds binding to hemoglobin were detected on the SMMs using a fluorescent dye-conjugated antibodies specific for hemoglobin. The assay was validated by confirming the binding of hemoglobin to 2,3-DPG affixed on SMMs.
# Each slide contained 48 “blocks”, and each block contained approximately 100 unique surface-immobilized small molecules. Compounds were printed in duplicate, and each slide was screened in duplicate, resulting in four replicates for every test compound. SMM slides were blocked by incubating them in a TBS-T solution (Tween 20, 0.01 vol %) containing bovine serum albumin (BSA, 0.1 wt %) for 30 min. […]
# Using SMM Hits-Analyzer software (Broad Institute), the measured fluorescent signal of the foreground of a given spot (F) was divided by its local background (B) resulting in a calculated F/B ratio for each spot on which the test compounds were affixed. The F/B ratios were fitted to a Cauchy distribution plot for every block on the slide, and “positive” hits were determined using a p-value threshold of 7%. […]
# hemoglobin [4] = target: T2, hemoglobin; assay: Hemoglobin oxygen-binding assay (oxyHb % by spectrophotometry at controlled FO2); assay type: biochemical; details: allosteric effector to hemoglobin tetramer 6 to 1 (mol/mol)
# Protocol: Test compounds (0.75 μL, 10 mM in DMSO) were added to the central area of two 384 deep well plates forming compound plates. DPBS was used as the solvent for myo-inositol hexaphosphate (IHP) and N-ethylmaleimide (NEM) (10 mM). To prevent oxidation of hemoglobin during the experiment, glucose-6-phosphate (0.4 mg/mL), glucose-6-phosphate dehydrogenase (1.0 U/mL), nicotinamide adenine dinucleotide phosphate (NADP, 0.05 mg/mL), ferredoxin (0.01 mg/mL), ferredoxin-NADP reductase (0.01 U/mL) and catalase (2×10^3 U/mL) were added to hemoglobin to produce the Hayashi reducing system, which is described in detail in Hayashi et al., Biochemica et Biophysica Acta, 1973, 310, 309-316. […]
# The alteration of hemoglobin's oxygen-binding affinity by the test compounds binding to hemoglobin was evaluated in an environment where the fractional oxygen pressure (FO2) could be precisely measured and controlled. […] To confirm the allosteric effect of the test compounds, ODC of hemoglobin was measured in the presence and absence of each compound. […]
# The ability of small molecules to alter the oxygen affinity of hemoglobin was determined by measuring the fraction of oxygenated hemoglobin (oxyHb %) and oxidized hemoglobin (metHb %) using spectrophotometry under three (high, medium, and low oxyHb saturation) conditions. […]
smiles,measurement,setting,value
"Cc1cc(C)cc(C(=O)N(C)C(Cc2ccc(-c3ccccc3)cc2)C(=O)NC(C)(C)C(=O)O)c1 (stereo not drawn) [Compound 10, 2-(3-([1,1′-biphenyl]-4-yl)-2-(N,3,5-trimethylbenzamido)propanamido)-2-methylpropanoic acid]",P50 with purified hemoglobin,[1],23 Torr
same,P50 of whole blood,[2],31 Torr
same,Hemolysis of whole blood (P50 of whole blood column),RBCs,c
"N=C(N)SSC(=N)N [formamidine disulfide, reference compound]",P50 of RBCs,[2]; allosteric effector 400 μM,9 Torr
"O=C(O)C(COP(=O)(O)O)OP(=O)(O)O (stereo not drawn) [2,3-DPG, 2,3-diphosphoglycerate, reference compound]",P50 of hemoglobin,"[1]; hemoglobin 20 μM tetramer, compound 200 μM, DPBS pH 7.4, 5 vol % DMSO, 37° C., hemoglobin alone 17 Torr",19±0.1 Torr
same,"P50 of hemoglobin with 2,3-DPG","[1]; hemoglobin 20 μM, 2,3-DPG 600 μM (pre-saturated), no Compound 1",23±0.7 Torr
same,Binding of hemoglobin to compound affixed on SMMs,hemoglobin [3],binding
"CC(=O)N(C)[C@H](Cc1ccc(-c2ccccc2)cc1)C(=O)N[C@@H](Cc1c[nH]c2ccccc12)C(=O)O [Compound 4, (S)-2-((R)-3-([1,1′-biphenyl]-4-yl)-2-(N-methylacetamido)propanamido)-3-(1H-indol-3-yl)propanoic acid] (Ac-[dNMeBip]-Trp-OH)",P50 with purified hemoglobin,[1],20 Torr
"CC(=O)N(C)[C@@H](Cc1ccccc1)C(=O)N[C@H](Cc1c[nH]c2ccccc12)C(=O)O (stereo in doubt) [Compound 5, (R)-3-(1H-indol-3-yl)-2-((S)-2-(N-methylacetamido)-3-phenylpropanamido)propanoic acid]",P50 with purified hemoglobin,[1],18 Torr
"Cc1cc(C)cc(C(=O)N(C)C(Cc2ccc(-c3ccccc3)cc2)C(=O)NCC(=O)O)c1 (stereo not drawn) [Compound 9, 2-(3-([1,1′-biphenyl]-4-yl)-2-(N,3,5-trimethylbenzamido)propanamido)acetic acid]",P50 with purified hemoglobin,[1],28 Torr
same,P50 of whole blood,[2],33 Torr
same,Hemolysis of whole blood (P50 of whole blood column),RBCs,c
"O=Cc1ccc(CO)o1 [Compound 5HMF, reference compound]",P50 of RBCs,[2]; allosteric effector 2 mM,9 Torr
"Cc1cc(C)cc(C(=O)N(C)[C@H](Cc2ccccc2)C(=O)N[C@@H](Cc2c[nH]c3ccccc23)C(=O)O)c1 [Compound 2, (S)-3-(1H-indol-3-yl)-2-((R)-3-phenyl-2-(N,3,5-trimethylbenzamido)propanamido)propanoic acid]","Increase of P50 of hemoglobin, dose dependence","[1]; FIG. 3, FIG. 6-7",concentration-dependent
same,P50 with purified hemoglobin,[1],20 Torr
same,Oxygen affinity of red blood cells (RBCs),"[2]; human blood, FIG. 9",increased
same,Hemolysis of diluted human blood,RBCs,without hemolysis
"O=P(O)(O)O[C@H]1[C@H](OP(=O)(O)O)[C@@H](OP(=O)(O)O)[C@H](OP(=O)(O)O)[C@@H](OP(=O)(O)O)[C@H]1OP(=O)(O)O [IHP, myo-inositol hexaphosphate]",Change of oxyHb %,hemoglobin [4],decrease
"CCN1C(=O)C=CC1=O [NEM, N-ethylmaleimide, reference compound]",P50 of RBCs,[2]; allosteric effector 400 μM,8 Torr
same,Change of oxyHb %,hemoglobin [4],increase
"Cc1cc(C)cc(NC(=O)Cc2ccc(OC(C)(C)C(=O)O)cc2)c1 [RSR-13, reference compound]",Hemolysis of diluted human blood,RBCs,hemolysis
"Cc1cc(C)cc(C(=O)NC(Cc2ccc(-c3ccccc3)cc2)C(=O)NCC(=O)O)c1 (stereo not drawn) [Compound 8, 2-(3-([1,1′-biphenyl]-4-yl)-2-(3,5-dimethylbenzamido)propanamido)acetic acid]",P50 with purified hemoglobin,[1],48 Torr
same,P50 of whole blood,[2],32 Torr
same,Hemolysis of whole blood (P50 of whole blood column),RBCs,c
